Reference: article PMC2665027 (Biochemistry, 2009)
Changes are numbered by the printed parent chain. Names may count otherwise. “And” between values parts separate entries of the source, which are not always exact repeats. Identical values can stand only once. Like-named read-outs stand apart in the source and are kept apart here.

Experiments:
D183A human arginase I [1] = target: T1, D183A human arginase I (Homo sapiens, UniProt P05089, D183A); experiment: Isothermal titration calorimetry, D183A human arginase I; format: binding
T1 sequence (P05089 1-322 D183A): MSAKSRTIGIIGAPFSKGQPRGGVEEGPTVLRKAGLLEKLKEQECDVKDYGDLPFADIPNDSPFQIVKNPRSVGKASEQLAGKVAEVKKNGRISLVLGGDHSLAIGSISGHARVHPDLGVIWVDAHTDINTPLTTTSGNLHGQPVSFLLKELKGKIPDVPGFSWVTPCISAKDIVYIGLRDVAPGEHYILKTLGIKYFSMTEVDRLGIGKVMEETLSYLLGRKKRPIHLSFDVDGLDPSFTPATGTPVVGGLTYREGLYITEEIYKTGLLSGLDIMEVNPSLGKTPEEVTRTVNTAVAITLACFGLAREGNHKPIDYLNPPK

D183N human arginase I [2] = target: T2, D183N human arginase I (Homo sapiens, UniProt P05089, D183N); experiment: Isothermal titration calorimetry, D183N human arginase I; format: binding
T2 sequence (P05089 1-322 D183N): T1 sequence (P05089 1-322 D183A) with A183N

[3] = target: wild-type human arginase I; details: isothermal titration calorimetry; ref [30] and [48]; cited from earlier work
T135A rat arginase I = target: T3, T135A rat arginase I (Rattus norvegicus, UniProt P07824, T135A); experiment: 14C-urea radioactive arginase assay, T135A rat arginase I; format: biochemical
T3 sequence (P07824 1-323 T135A): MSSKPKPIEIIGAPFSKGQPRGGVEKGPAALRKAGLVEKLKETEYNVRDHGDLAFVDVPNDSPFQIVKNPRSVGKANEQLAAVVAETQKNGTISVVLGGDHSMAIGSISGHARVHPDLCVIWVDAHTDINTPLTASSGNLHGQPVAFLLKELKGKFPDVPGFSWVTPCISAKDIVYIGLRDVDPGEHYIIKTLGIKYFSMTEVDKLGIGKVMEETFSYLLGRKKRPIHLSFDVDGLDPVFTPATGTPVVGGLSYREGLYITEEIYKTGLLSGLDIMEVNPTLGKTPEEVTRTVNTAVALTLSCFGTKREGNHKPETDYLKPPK

T135S rat arginase I = target: T4, T135S rat arginase I (Rattus norvegicus, UniProt P07824, T135S); format: biochemical
T4 sequence (P07824 1-323 T135S): T3 sequence (P07824 1-323 T135A) with A135S

N130A rat arginase I = target: T5, N130A rat arginase I (Rattus norvegicus, UniProt P07824, N130A); experiment: 14C-urea radioactive arginase assay, N130A rat arginase I; format: biochemical
T5 sequence (P07824 1-323 N130A): T3 sequence (P07824 1-323 T135A) with N130A, A135T

wild-type rat arginase I = target: T6, wild-type rat arginase I (Rattus norvegicus, UniProt P07824); details: ref [14], cited from earlier work
T6 sequence (P07824 1-323): T3 sequence (P07824 1-323 T135A) with A135T

rat arginase I [4] = details: ref [26], cited from earlier work; for diminished catalytic activity based on kcat/KM relative to L-arginine / increased KM value relative to L-arginine: alternative substrate
D183N human arginase I [5] = target: T2, D183N human arginase I; experiment: 14C-urea radioactive arginase assay, D183N human arginase I; format: biochemical; details: substrate L-arginine; pH 9.0, room temperature
D183A human arginase I [6] = target: T1, D183A human arginase I; details: substrate L-arginine; pH 9.0, room temperature
[7] = system: wild-type human arginase I; details: substrate L-arginine; ref [30] and [48]; cited from earlier work
[8] = system: proclavaminic acid amidinohydrolase; details: ref [54]; cited from earlier work
rat arginase I [9] = details: deletion of the carboxylate group of ABH; ref [28]; cited from earlier work
[10] = substrate: N=C(N)NCCC[C@H](N)C(=O)O; experiment: 14C-urea radioactive arginase assay, D183A rat arginase I; format: biochemical; details: other: substrate L-arginine, pH 9.0, room temperature
[11] = substrate: N=C(N)NCCC[C@H](N)C(=O)O; experiment: 14C-urea radioactive arginase assay, N130Y rat arginase I; format: biochemical; details: other: substrate L-arginine, pH 9.0, room temperature
[12] = substrate: N=C(N)NCCC[C@H](N)C(=O)O; experiment: 14C-urea radioactive arginase assay, N130F rat arginase I; format: biochemical; details: other: substrate L-arginine, pH 9.0, room temperature
[13] = substrate: N=C(N)NCCC[C@H](N)C(=O)O; experiment: 14C-urea radioactive arginase assay, N130A rat arginase I; format: biochemical; details: other: substrate L-arginine, pH 9.0, room temperature
[14] = substrate: N=C(N)NCCC[C@H](N)C(=O)O; format: biochemical, rat; details: other: substrate L-arginine, pH 9.0, room temperature
[15] = substrate: N=C(N)NCCC[C@H](N)C(=O)O; experiment: 14C-urea radioactive arginase assay, T135A rat arginase I; format: biochemical; details: other: substrate L-arginine, pH 9.0, room temperature
[16] = progress curves in the presence of 30 µM BEC linear with time

In the case of `N[C@@H](CCCCB(O)O)C(=O)O` [ABH, 2(S)-amino-6-boronohexanoic acid], the Kd (D183A human arginase I [1]) is reported as 7000 nM, the “inhibitor binding affinity weakened relative to wild-type” value (D183A human arginase I [1]; D183A vs wild-type human arginase I, calorimetric Kd) is reported as ~ 1400 fold and 1400 fold and the Kd (D183N human arginase I [2]) is reported as 147 nM. The “inhibitor binding affinity weakened relative to wild-type” value (D183N human arginase I [2]; D183N vs wild-type human arginase I, calorimetric Kd) was 29 fold and the Kd [3] was 5 nM.

For `N[C@@H](CSCCB(O)O)C(=O)O` [BEC, S-(2-boronoethyl)-L-cysteine], the Ki (T135A rat arginase I) was 4500 nM, the inhibitor binding behaviour (T135A rat arginase I; [16]) was “does not exhibit slow-binding behavior” and the Ki (T135S rat arginase I) was 125 nM. The koff (T135S rat arginase I) was 0.00155 s⁻¹, the kon (T135S rat arginase I) was 12400 M⁻¹ s⁻¹ and the inhibitor binding behaviour (T135S rat arginase I; non-linear progress curves in the presence of BEC) was “slow-binding behavior”. For the same molecule, the Ki (N130A rat arginase I) was 13000 nM, the “diminished enzyme-inhibitor affinity relative to wild-type” value (N130A rat arginase I; N130A vs wild-type rat arginase I) was ~ 30 fold and the inhibitor binding behaviour (N130A rat arginase I; [16]) was “no longer a slow-binding inhibitor”. The inhibitor binding behaviour (wild-type rat arginase I) was “slow-binding inhibitor” and the Ki (wild-type rat arginase I; slow-binding kinetics observed, Ki = koff/kon) was 400 nM.

For `NC(N)=NCCC[C@@H](N)C(=O)O` [D-arginine], the substrate activity (rat arginase I [4]) is given as “not a substrate”.

With `N=C(N)NCCC[C@H](N)C(=O)O` [L-arginine] the Km (D183N human arginase I [5]) was 40 mM, the kcat (D183N human arginase I [5]) was 167 s⁻¹ and the kcat (D183A human arginase I [6]) was 68 s⁻¹. The Km [7] was 1.5 mM, the kcat [7] was 190 s⁻¹ and the substrate acceptance [8] was “does not accept L-arginine as a substrate”.

In the case of `NC(N)=NCCC[C@H](O)C(=O)O` [L-argininic acid], the “diminished catalytic activity based on kcat/KM relative to L-arginine” value (rat arginase I [4]) is given as 3,200 fold and the “increased KM value relative to L-arginine” value (rat arginase I [4]) is given as 9 fold.

In the case of `NCCCCN=C(N)N` [agmatine], the “diminished catalytic activity based on kcat/KM relative to L-arginine” value (rat arginase I [4]) is given as 54,000 fold and the “increased KM value relative to L-arginine” value (rat arginase I [4]) is given as 11 fold.

In the case of `NCCCCCB(O)O` [descarboxy-ABH], the “loss of inhibitory activity relative to ABH” value (rat arginase I [9]) is given as 1800 fold.

B1: D183A rat arginase I (Rattus norvegicus; D183A) (protein)
chain: T3 sequence (P07824 1-323 T135A) with A135T, D183A
Molecule B1 has a Km [10] of 13.9 mM, a kcat [10] of 14.7 s⁻¹ and a kcat/Km [10] of 1100 M⁻¹ s⁻¹.

B2: N130Y rat arginase I (Rattus norvegicus; N130Y) (protein)
chain: T3 sequence (P07824 1-323 T135A) with N130Y, A135T
With B2 the Km [11] was 21.4 mM, the kcat [11] was 17 s⁻¹ and the kcat/Km [11] was 790 M⁻¹ s⁻¹.

B3: N130F rat arginase I (Rattus norvegicus; N130F) (protein)
chain: T3 sequence (P07824 1-323 T135A) with N130F, A135T
Work on B3 yielded a Km [12] of 19.3 mM, a kcat [12] of 4.8 s⁻¹ and a kcat/Km [12] of 250 M⁻¹ s⁻¹.

B4: N130A rat arginase I (Rattus norvegicus; N130A) (protein)
chain: T3 sequence (P07824 1-323 T135A) with N130A, A135T
B4 gave a Km [13] of 50 mM, a kcat [13] of 220 s⁻¹ and a kcat/Km [13] of 4400 M⁻¹ s⁻¹.

B5: T135S rat arginase I (Rattus norvegicus; T135S) (protein)
chain: T3 sequence (P07824 1-323 T135A) with A135S
B5 showed a Km [14] of 2.5 mM, a kcat [14] of 350 s⁻¹ and a kcat/Km [14] of 140000 M⁻¹ s⁻¹.

B6: T135A rat arginase I (Rattus norvegicus; T135A) (protein)
chain: T3 sequence (P07824 1-323 T135A)
With B6 the Km [15] was 13 mM, the kcat [15] was 260 s⁻¹ and the kcat/Km [15] was 20000 M⁻¹ s⁻¹.
